Measurements published in ChEMBL document CHEMBL3832029, “DailyMed|setid=517810a4-76bb-4739-893f-1f2ba94a5d0c | ZENATANE -isotretinoin capsule, gelatine coated”.
Values joined by “and” are separate entries in the source; they are usually repeats but may differ in a detail not shown here. Equal values may be shown once.

Tests used:
Type in all cases: ADME, organism-based
[1] = (§1) Mean pharmacokinetics parameters for Isotretinoin following single oral administration of Isotretinoin to healthy subjects.; parameters: dose 80 mg, route oral; conditions: human, in vivo, dietary status Fed, dosed compound id 16, dosed compound name ISOTRETINOIN, regimen Single dose, tissue Plasma; for AUC: po, 80 mg
[2] = system: Homo sapiens; assay: as §1; parameters: dose 80 mg, route oral; conditions: in vivo, po, dosed compound id 16, dosed compound name ISOTRETINOIN, regimen Single dose, tissue Plasma
[3] = (§2) Steady-state pharmacokinetic parameters of Isotretinoin following multiple oral administration of Isotretinoin to 38 pediatric patients, […], after a non-standardised meal.; parameters: route oral; conditions: human, in vivo, dietary status Fed, dosed compound id 16, dosed compound name ISOTRETINOIN, regimen Multiple dose, tissue Plasma
[4] = system: Homo sapiens; assay: as §2; parameters: route oral; conditions: in vivo, po, dietary status Fed, dosed compound id 16, dosed compound name ISOTRETINOIN, regimen Multiple dose, tissue Plasma
[5] = dietary status Fasting, dose 80 mg

SMILES: CC1=C(/C=C/C(C)=C/C=C/C(C)=C\C(=O)O)C(C)(C)CCC1 [ISOTRETINOIN]
- AUC ([1]; read-out: AUC(0-12)): 3030 ng·h/mL
- AUC ([1]; read-out: AUC(0-24)): 6000 ng·h/mL
- Tmax ([1]; dose 80 mg, route oral): 5.3 h
- half-life ([1]; dose 80 mg, route oral): 21 h
- Tmax [2, 5]: 3.2 h
- t1/2 [2, 5]: 21 h
- AUC(0 to inf) ([2]; dietary status Fasting): 3700 ng·h/mL
- Cmax ([2]; dietary status Fasting): 301 ng/mL
- AUC(0 to inf) ([2]; dietary status Fed): 10000 ng·h/mL
- Cmax ([2]; dietary status Fed): 862 ng/mL and 573.25 ng/mL
- Tmax ([2]; dietary status Fed): 6 h
- Cmax ([3]; po): 732 ng/mL
- AUC ([3]; po, read-out: AUC(0-12)): 5080 ng·h/mL
- CL/F ([3]; route oral): 299 mL/min
- Tmax ([3]; route oral): 4 h
- half-life ([3]; route oral): 15.7 h
- Css min [4]: 352.32 ng/mL
